Results taken from patent publication US20240199722A1, “NANOPLATFORM FOR TARGETING MACROPHAGE AND COMPOSITION FOR PREVENTION OR TREATMENT OF METASTATIC CANCER” (SEOUL NATIONAL UNIVERSITY R&DB FOUNDATION, priority 2021, published 2024).

Test system: macrophages at lung metastatic site
Experiment: Early diagnosis of cancer metastasis in the 4T1-luc model: FDG-PET versus 111In-MSA-FL SPECT/CT (FIG. 8)
Assay type: in vivo, mouse
From the text: In order to verify the possibility of early diagnosis of cancer metastasis of the albumin-based nanoplatform conjugated with the mannosyl group, a model that may represent cancer metastasis was reproduced and confirmed through tissue staining whether it could actually reflect metastasis.
This animal model is known to naturally cause metastasis to secondary organs after transplanting cancer cells into mice, and is especially known to cause metastasis to the lung area, similar to the pattern of existing breast cancer.

SMILES: OC[C@H]1O[C@@H](O)[C@H]([18F])[C@@H](O)[C@@H]1O [FDG]
- time at which cancer metastasis could be diagnosed (day after modeling): 28 days
- nuclear medicine signal/image in the lung area before metastasis (imaging on days 7, 14, 21, 28): could hardly be confirmed
- uptake at the metastatic site, statistical significance (quantification FIG. 8(b)): statistically significant difference only on Day 28
